Laboratory results: ChEMBL document CHEMBL1201862, “PubChem BioAssay data set” (2004)
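Values below derive from 48-hour exposures of cells grown in 96-well plates, with endpoints linearly interpolated between the two concentrations bracketing the appropriate inhibition level. GI50 marks 50% less growth.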 Activity calls are given as the source filed them. Rule as the data show it: active = GI50 up to about 1.1 µM and inactive = higher.

Assays:
Experiment in all cases: NCI anticancer screen, dose series, 48 h
[1] = test system: HL-60
[2] = test system: MCF7
[3] = test system: UACC-62
[4] = test system: SK-OV-3
[5] = test system: HCT-116
[6] = test system: HCC 2998
[7] = test system: T47D
[8] = test system: SK-MEL-5
[9] = test system: K562
[10] = test system: M14
[11] = test system: SNB-19
[12] = test system: A498
[13] = test system: HOP-62
[14] = test system: NCI-H23
[15] = test system: HOP-92
[16] = test system: TK-10
[17] = test system: Hs-578T
[18] = test system: MOLT-4
[19] = test system: SF-295
[20] = test system: MDA-N

Measured: GI50

CN1c2ccccc2S(=O)(=O)n2c(COc3ccc(Cl)cc3)nnc21
inactive: [1] 91 µM | [2] > 100 µM | [3] 56.2 µM | [4] 77.1 µM | [5] > 100 µM | [6] > 100 µM | [7] > 100 µM | [8] > 100 µM | [9] > 100 µM | [10] > 100 µM | [11] 57.4 µM | [12] 30.5 µM | [13] 21.7 µM | [14] > 100 µM | [15] 28 µM | [16] > 100 µM | [17] 43.4 µM | [18] > 100 µM | [19] 27 µM | [20] > 100 µM

CCOC(=O)C(=O)N1C(C)=C(C(=O)OCC)CC(C(=O)OCC)=C1C
inactive: [1] > 100 µM | [2] > 100 µM | [3] > 100 µM | [4] > 100 µM | [5] > 100 µM | [6] > 100 µM | [7] > 100 µM | [8] > 100 µM | [9] > 100 µM | [10] > 100 µM | [11] > 100 µM | [12] > 100 µM | [13] > 100 µM | [14] > 100 µM | [15] > 100 µM | [16] > 100 µM | [17] > 100 µM | [18] > 100 µM | [19] > 100 µM | [20] > 100 µM

NC(=O)N/N=C(/CC1C(=O)Oc2ccccc21)c1ccccc1O (stereo not given)
inactive: [1] 19.6 µM | [2] 48.1 µM | [3] 19.1 µM | [4] 34.1 µM | [5] 29.6 µM | [6] 35 µM | [7] 19.5 µM | [8] 58.6 µM | [9] 30.8 µM | [10] > 100 µM | [11] 60 µM | [12] 49.3 µM | [13] 29 µM | [14] 31.5 µM | [15] 29.8 µM | [16] 53.8 µM | [17] > 100 µM | [18] 20.2 µM | [19] 42.5 µM | [20] 45.5 µM

O=C(c1ccccn1)C1(N2CCCCC2)CCCCC1
inactive: [1] 88.3 µM | [2] > 100 µM | [3] > 100 µM | [4] > 100 µM | [5] > 100 µM | [6] > 100 µM | [7] 46 µM | [8] > 100 µM | [9] > 100 µM | [10] > 100 µM | [11] > 100 µM | [12] > 100 µM | [13] > 100 µM | [14] 91.6 µM | [15] 9.75 µM | [16] > 100 µM | [17] 15.5 µM | [18] > 100 µM | [19] > 100 µM | [20] > 100 µM

COc1c(OC)c(O)c2c(=O)c(OC)c(-c3ccc4c(c3)OCO4)oc2c1O
inactive: [1] 19.5 µM | [2] > 100 µM | [3] > 100 µM | [4] > 100 µM | [5] 38.6 µM | [6] > 100 µM | [7] 24.5 µM | [8] 38.2 µM | [9] 85.3 µM | [10] > 100 µM | [11] > 100 µM | [12] > 100 µM | [13] > 100 µM | [14] > 100 µM | [15] 1.39 µM | [16] > 100 µM | [17] > 100 µM | [18] 40.1 µM | [19] 77.4 µM | [20] > 100 µM

CC(NC1=NCCO1)c1cccc([N+](=O)[O-])c1 (stereo not given)
inactive: [1] > 100 µM | [2] > 100 µM | [3] > 100 µM | [4] > 100 µM | [5] > 100 µM | [6] > 100 µM | [7] > 100 µM | [8] > 100 µM | [9] > 100 µM | [10] > 100 µM | [11] > 100 µM | [12] > 100 µM | [13] > 100 µM | [14] > 100 µM | [15] 30 µM | [16] > 100 µM | [17] > 100 µM | [18] 88.7 µM | [19] > 100 µM | [20] > 100 µM

CCOCC(=O)N[C@H]1CCc2cc(OC)c(OC)c(OC)c2-c2ccc(OC)c(=O)cc21
inactive: [7] > 100 µM | [16] 2.46 µM
active: [1] < 0.01 µM | [2] 0.0207 µM | [3] 0.0153 µM | [4] 0.111 µM | [5] 0.014 µM | [6] 0.0141 µM | [8] 0.0133 µM | [9] < 0.0128 µM | [10] 0.0179 µM | [11] 0.164 µM | [12] 0.0229 µM | [13] 0.0232 µM | [14] 0.0132 µM | [15] 0.0303 µM | [17] 0.0203 µM | [18] 0.0231 µM | [19] 0.0206 µM | [20] 0.0122 µM
